For orientation: Ki means a dissociation constant, usually derived from enzyme kinetics or from competition with a known ligand. Low readings indicate a stronger hold on the target, high ones a looser hold on the target.

The source of these data is BindingDB's records for doi:10.1021/jm00103a008 (National Institute of Diabetes and Digestive and Kidney …, 1993).

The nature of this assay: Compound was evaluated for its ability to displace [3H](+)-pentazocine from sigma receptor in Guinea pig brain.
For the molecule `c1ccc([C@@]2(N3CCCCC3)CC[C@H]3C[C@H]32)cc1`, the Ki worked out at 1.13 µM. The figure for `c1ccc([C@]2(N3CCCCC3)CC[C@@H]3C[C@@H]32)cc1` is 7.28 µM; for `c1ccc([C@]2(N3CCCCC3)CC[C@H]3C[C@H]32)cc1` it is 4.45 µM.
